Columns and labels:
[1] = target: Insulin receptor-related protein (Homo sapiens) (UniProt P14616); conditions: Compound concentration 1.0 uM
[2] = target: Casein kinase I isoform gamma-3 (Homo sapiens) (UniProt Q9Y6M4); conditions: Compound concentration 1.0 uM
[3] = target: MAP kinase-activated protein kinase 2 (Homo sapiens) (UniProt P49137); test: MAPKAPK2 DUNDEE kinase screen (BI); conditions: Compound concentration 10.0 uM
[4] = target: DNA-dependent protein kinase catalytic subunit (Homo sapiens) (UniProt P78527); conditions: Compound concentration 1.0 uM
[5] = target: Serine/threonine-protein kinase Nek2 (Homo sapiens) (UniProt P51955); test: NEK2A DUNDEE kinase screen (BI); conditions: Compound concentration 10.0 uM
[6] = target: Serine/threonine-protein kinase LATS2 (Homo sapiens) (UniProt Q9NRM7); test: LATS2 Invitrogen Lab (UK) kinase screen (BI); conditions: Compound concentration 1.0 uM
[7] = target: T1, D(4) dopamine receptor (Homo sapiens) (UniProt P21917); conditions: Compound concentration 10.0 uM
T1 sequence (whole entry): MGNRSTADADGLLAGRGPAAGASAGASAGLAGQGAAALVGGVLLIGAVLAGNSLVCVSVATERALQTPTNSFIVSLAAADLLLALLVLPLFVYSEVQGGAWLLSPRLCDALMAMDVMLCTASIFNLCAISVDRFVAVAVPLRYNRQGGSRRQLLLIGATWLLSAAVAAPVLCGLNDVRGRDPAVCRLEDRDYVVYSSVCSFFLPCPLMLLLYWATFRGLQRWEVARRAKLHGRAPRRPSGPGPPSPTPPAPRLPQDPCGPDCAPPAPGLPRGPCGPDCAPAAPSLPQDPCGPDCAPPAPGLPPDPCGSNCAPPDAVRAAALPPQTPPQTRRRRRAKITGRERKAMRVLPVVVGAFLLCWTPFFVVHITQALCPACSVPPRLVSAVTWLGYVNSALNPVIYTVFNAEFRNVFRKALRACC

[8] = target: Myosin light chain kinase family member 4 (Homo sapiens) (UniProt Q86YV6); test: MYLK4 Invitrogen Lab (UK) kinase screen (BI); conditions: Compound concentration 1.0 uM
[9] = target: Tyrosine-protein kinase Fyn (Homo sapiens) (UniProt P06241); conditions: Compound concentration 1.0 uM
[10] = target: Testis-specific serine/threonine-protein kinase 2 (Homo sapiens) (UniProt Q96PF2); conditions: Compound concentration 1.0 uM
Sequence of Testis-specific serine/threonine-protein kinase 2 (Homo sapiens) (Q96PF2 whole entry): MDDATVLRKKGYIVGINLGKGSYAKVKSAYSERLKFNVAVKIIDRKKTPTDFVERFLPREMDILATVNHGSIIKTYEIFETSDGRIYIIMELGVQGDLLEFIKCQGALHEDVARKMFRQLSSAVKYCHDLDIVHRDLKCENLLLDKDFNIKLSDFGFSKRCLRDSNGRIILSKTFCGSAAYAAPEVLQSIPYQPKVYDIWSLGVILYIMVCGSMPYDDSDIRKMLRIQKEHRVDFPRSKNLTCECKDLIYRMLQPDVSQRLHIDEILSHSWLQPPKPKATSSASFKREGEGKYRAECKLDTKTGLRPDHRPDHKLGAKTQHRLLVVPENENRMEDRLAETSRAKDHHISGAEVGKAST

[11] = target: Serine/threonine-protein kinase Nek9 (Homo sapiens) (UniProt Q8TD19); conditions: Compound concentration 1.0 uM
[12] = target: Calcium/calmodulin-dependent protein kinase type 1 (Homo sapiens) (UniProt Q14012); test: CAMK1 DUNDEE kinase screen (BI); conditions: Compound concentration 10.0 uM
[13] = target: T2, Serine/threonine-protein kinase Chk1 (Homo sapiens) (UniProt O14757)
T2 sequence (whole entry): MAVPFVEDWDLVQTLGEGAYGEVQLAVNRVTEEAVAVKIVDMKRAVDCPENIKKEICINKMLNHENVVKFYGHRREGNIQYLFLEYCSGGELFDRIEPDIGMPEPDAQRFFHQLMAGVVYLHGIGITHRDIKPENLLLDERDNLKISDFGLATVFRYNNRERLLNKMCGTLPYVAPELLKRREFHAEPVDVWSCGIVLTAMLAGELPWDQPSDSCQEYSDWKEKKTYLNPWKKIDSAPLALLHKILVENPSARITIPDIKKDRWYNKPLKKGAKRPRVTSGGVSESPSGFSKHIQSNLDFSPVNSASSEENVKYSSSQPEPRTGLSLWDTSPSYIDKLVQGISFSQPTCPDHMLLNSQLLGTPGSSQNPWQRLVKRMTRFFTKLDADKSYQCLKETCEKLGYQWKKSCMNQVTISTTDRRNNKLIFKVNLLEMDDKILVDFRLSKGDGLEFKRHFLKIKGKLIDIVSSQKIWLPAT

[14] = target: Serotonin 2 (5-HT2) receptor (Rattus norvegicus) (UniProt P30994+P08909+P14842)
Sequence of Serotonin 2 (5-HT2) receptor (Rattus norvegicus) (P08909 whole entry, looked up): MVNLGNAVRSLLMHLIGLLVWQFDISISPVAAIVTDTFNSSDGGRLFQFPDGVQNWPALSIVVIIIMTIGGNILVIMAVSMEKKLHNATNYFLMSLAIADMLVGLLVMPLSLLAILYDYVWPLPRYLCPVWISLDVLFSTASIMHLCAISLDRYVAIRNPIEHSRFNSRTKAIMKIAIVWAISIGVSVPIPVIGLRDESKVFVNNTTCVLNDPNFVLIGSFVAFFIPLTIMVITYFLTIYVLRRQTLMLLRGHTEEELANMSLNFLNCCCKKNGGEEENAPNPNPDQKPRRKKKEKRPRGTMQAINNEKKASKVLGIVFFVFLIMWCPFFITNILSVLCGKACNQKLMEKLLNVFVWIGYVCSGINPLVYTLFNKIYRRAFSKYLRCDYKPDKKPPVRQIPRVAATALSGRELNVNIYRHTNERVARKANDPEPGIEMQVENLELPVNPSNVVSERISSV
Sequence of Serotonin 2 (5-HT2) receptor (Rattus norvegicus) (P14842 whole entry, looked up): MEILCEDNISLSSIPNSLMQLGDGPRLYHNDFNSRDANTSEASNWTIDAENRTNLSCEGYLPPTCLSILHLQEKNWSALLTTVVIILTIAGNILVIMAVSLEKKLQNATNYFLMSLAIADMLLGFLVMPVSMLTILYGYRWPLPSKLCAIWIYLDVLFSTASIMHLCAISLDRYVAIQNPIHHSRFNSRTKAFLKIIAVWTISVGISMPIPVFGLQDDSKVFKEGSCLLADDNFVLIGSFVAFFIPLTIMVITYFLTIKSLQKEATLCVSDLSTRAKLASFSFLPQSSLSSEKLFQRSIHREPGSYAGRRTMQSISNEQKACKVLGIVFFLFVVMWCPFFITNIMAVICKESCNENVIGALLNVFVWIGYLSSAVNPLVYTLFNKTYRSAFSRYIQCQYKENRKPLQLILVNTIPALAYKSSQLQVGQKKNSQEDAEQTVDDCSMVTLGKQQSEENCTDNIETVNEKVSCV
Sequence of Serotonin 2 (5-HT2) receptor (Rattus norvegicus) (P30994 whole entry, looked up): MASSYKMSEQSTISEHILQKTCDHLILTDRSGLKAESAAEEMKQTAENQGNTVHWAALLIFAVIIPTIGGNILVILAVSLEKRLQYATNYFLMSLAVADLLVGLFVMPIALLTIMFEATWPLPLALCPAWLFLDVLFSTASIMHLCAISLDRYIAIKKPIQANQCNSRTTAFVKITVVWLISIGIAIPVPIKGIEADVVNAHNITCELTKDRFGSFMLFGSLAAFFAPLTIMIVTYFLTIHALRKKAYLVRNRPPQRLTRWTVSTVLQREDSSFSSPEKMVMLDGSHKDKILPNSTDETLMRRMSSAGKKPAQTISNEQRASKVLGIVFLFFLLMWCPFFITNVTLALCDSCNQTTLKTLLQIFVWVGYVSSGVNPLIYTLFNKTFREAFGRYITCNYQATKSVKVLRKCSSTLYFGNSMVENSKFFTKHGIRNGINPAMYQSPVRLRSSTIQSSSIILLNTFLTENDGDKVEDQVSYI

[15] = target: D(1A) dopamine receptor (Homo sapiens) (UniProt P21728); conditions: Compound concentration 10.0 uM
[16] = target: AMP-activated protein kinase alpha-2/beta-2/gamma-2 (Homo sapiens) (UniProt P54646+O43741+Q9UGJ0); test: AMPK (A2/B2/G2) Invitrogen Lab (UK) kinase screen (BI); format: protein-complex assay; conditions: Compound concentration 1.0 uM
[17] = target: Neutrophil elastase (Homo sapiens) (UniProt P08246); conditions: Compound concentration 10.0 uM
[18] = target: Calcium/calmodulin-dependent protein kinase type II subunit beta (Homo sapiens) (UniProt Q13554); conditions: Compound concentration 1.0 uM
Sequence of Calcium/calmodulin-dependent protein kinase type II subunit beta (Homo sapiens) (Q13554 whole entry): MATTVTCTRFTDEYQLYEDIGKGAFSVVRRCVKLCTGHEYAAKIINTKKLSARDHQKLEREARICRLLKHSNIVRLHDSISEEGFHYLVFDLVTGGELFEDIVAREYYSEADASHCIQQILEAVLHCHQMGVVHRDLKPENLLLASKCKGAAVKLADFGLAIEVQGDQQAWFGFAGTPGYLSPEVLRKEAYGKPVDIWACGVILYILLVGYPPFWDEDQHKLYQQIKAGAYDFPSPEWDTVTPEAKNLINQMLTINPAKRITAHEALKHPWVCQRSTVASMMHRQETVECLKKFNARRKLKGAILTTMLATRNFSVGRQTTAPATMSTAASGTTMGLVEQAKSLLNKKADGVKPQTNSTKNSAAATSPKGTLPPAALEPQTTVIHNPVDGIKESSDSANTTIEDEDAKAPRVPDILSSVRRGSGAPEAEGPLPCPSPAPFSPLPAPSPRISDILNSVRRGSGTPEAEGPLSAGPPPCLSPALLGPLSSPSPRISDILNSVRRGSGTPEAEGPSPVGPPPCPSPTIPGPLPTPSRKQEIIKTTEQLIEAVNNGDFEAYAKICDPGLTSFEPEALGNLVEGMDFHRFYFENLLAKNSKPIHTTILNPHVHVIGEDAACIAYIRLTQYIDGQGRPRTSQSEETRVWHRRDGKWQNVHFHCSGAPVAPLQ

[19] = target: Voltage-dependent L-type calcium channel subunit alpha-1C (CA+/DILSI/RA) (Rattus norvegicus, UniProt P22002); test: CA+/DILSI/RA Eurofins SafetyScreen44 (BI); conditions: read-out: % Ctrl
Sequence of Voltage-dependent L-type calcium channel subunit alpha-1C (CA+/DILSI/RA) (P22002 whole entry): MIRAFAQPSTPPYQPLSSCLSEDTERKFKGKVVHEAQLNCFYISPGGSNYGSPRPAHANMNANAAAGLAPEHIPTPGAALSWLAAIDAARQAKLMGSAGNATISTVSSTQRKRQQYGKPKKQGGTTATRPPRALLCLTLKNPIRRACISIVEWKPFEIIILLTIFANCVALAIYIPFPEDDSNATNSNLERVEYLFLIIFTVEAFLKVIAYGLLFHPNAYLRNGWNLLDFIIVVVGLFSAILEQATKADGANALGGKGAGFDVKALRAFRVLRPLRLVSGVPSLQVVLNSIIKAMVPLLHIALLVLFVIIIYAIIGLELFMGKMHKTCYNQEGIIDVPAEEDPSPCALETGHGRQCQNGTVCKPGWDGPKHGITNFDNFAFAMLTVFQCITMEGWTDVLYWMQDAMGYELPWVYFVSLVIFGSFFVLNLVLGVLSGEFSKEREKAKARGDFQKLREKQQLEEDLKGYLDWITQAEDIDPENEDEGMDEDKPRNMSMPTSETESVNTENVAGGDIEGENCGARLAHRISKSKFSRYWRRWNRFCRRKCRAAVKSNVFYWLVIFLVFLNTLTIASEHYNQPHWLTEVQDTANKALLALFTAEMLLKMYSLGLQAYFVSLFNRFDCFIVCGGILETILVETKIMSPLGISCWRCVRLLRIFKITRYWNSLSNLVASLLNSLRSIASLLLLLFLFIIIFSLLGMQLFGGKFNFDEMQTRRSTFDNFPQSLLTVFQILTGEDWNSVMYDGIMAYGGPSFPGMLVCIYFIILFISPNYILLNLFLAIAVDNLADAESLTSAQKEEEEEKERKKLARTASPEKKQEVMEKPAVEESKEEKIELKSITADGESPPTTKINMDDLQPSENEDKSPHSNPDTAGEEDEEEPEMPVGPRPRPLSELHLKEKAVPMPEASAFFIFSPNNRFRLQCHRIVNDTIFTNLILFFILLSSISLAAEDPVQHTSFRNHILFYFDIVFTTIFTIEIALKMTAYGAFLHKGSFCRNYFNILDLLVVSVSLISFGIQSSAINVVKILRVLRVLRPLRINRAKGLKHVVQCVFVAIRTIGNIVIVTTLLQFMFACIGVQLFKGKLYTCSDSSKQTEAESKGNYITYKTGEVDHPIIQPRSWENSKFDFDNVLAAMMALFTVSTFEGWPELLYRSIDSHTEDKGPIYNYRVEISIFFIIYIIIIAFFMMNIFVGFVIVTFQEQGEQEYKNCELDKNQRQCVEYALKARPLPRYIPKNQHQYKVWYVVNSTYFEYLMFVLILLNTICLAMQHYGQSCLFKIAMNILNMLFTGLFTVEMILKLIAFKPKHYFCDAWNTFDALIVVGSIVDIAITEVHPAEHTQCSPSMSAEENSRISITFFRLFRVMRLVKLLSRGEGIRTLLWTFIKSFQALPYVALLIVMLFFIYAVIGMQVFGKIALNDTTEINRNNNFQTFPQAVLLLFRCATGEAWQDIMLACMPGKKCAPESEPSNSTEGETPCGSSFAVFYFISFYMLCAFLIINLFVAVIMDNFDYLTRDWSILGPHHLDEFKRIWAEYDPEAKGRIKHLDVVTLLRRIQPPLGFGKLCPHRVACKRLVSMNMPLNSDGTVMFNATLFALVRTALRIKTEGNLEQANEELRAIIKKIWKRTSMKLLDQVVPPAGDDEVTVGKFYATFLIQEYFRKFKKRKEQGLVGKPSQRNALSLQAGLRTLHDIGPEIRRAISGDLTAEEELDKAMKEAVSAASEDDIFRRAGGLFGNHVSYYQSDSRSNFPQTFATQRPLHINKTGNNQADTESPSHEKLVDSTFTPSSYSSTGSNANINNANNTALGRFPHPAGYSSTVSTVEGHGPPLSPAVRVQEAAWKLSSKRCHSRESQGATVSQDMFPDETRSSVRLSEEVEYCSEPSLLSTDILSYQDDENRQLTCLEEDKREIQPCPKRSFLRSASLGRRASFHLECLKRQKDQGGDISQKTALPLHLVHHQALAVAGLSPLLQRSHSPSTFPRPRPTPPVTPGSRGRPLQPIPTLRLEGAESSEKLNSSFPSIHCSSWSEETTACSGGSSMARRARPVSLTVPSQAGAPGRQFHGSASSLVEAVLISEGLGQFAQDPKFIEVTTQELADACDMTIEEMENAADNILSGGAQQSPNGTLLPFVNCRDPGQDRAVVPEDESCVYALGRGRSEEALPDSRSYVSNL

[20] = target: MAP kinase-activated protein kinase 5 (Homo sapiens) (UniProt Q8IW41); conditions: Compound concentration 1.0 uM
[21] = target: Cyclin-dependent kinase 5/CDK5 activator 1 (Homo sapiens) (UniProt Q00535+Q15078); conditions: Compound concentration 1.0 uM
[22] = target: 5-hydroxytryptamine receptor 1B (Homo sapiens) (UniProt P28222); conditions: Compound concentration 10.0 uM
Sequence of 5-hydroxytryptamine receptor 1B (Homo sapiens) (P28222 whole entry): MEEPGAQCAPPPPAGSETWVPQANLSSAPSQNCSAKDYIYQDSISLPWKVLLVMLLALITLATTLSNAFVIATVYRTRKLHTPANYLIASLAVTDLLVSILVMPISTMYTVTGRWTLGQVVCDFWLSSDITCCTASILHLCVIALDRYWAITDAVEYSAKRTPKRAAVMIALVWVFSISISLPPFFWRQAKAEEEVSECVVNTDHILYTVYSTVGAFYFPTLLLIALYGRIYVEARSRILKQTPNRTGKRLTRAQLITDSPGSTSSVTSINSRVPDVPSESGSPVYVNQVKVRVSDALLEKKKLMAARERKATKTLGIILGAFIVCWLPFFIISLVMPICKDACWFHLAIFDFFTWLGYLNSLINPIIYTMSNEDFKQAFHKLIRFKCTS

[23] = target: RAC-beta serine/threonine-protein kinase (Homo sapiens) (UniProt P31751); test: PKB-BETA DUNDEE kinase screen (BI); conditions: Compound concentration 10.0 uM
[24] = target: Amine oxidase [flavin-containing] A (MAOA) (Homo sapiens, UniProt P21397); test: MAOA Eurofins SafetyScreen44 (BI); design: mode of action inhibitor; conditions: compound concentration 10 uM, read-out: % Ctrl

SMILES: CCC(F)(F)c1cc(N2CCC(S(C)(=O)=O)CC2)nc2sc(C(N)=O)c(N)c12 [BI-605906]
- residual activity [1]: 92%
- residual activity [2]: 99%
- residual activity [3]: 94.5%
- residual activity [4]: 90%
- residual activity [5]: 74.8%
- residual activity [6]: 88%
- inhibition [7]: 44.6%
- residual activity [8]: 83%
- residual activity [9]: 89%
- residual activity [10]: 91%
- residual activity [11]: 99%
- residual activity [12]: 78.4%
- residual activity ([13]; Compound concentration 1.0 uM): 95%
- residual activity ([13]; Compound concentration 10.0 uM): 89%
- residual activity ([14]; Compound concentration 10.0 uM): 97%
- residual activity ([14]; Compound concentration 100.0 uM): 95%
- residual activity [15]: 101%
- residual activity [16]: 88%
- residual activity [17]: 98%
- residual activity [18]: 99%
- activity at 1 µM ([19]; compound concentration 1 uM): 99% (not active)
- activity at 3 µM ([19]; compound concentration 3 uM): 111% (not active)
- activity at 10 µM ([19]; compound concentration 10 uM): 101% (not active)
- activity at 30 µM ([19]; compound concentration 30 uM): 87% (not active)
- activity at 100 µM ([19]; compound concentration 100 uM): 45%
- residual activity [20]: 92%
- residual activity [21]: 97%
- inhibition [22]: 3.43%
- residual activity [23]: 98.1%
- activity at 10 µM [24]: 68% (not active)
